Patent US10274488B2, “Glycan arrays on PTFE-like aluminum coated glass slides and related methods” (Academia Sinica, priority 2008, dated 2019)

Assays:
[1] = tested on: endoglucanase 44A; assay: Enzymatic hydrolysis on the PTFE-like ACG surface with endoglucanase 44A, MS-TOF assay; type: biochemical, Clostridium thermocellum; details: substrate immobilized on the PTFE-like ACG surface
Method: (§1) For each carbohydrate, a specific enzyme was added: (a) is the control run without enzymes, (b) is exoglucanase L3, and (c) is endoglucanase 44A. […]
For comparison and as illustrated according to implementations shown in FIG. 23, substrate 8, 9, and 10 were immobilized on the PTFE-like ACG surface and carried out the cellulase hydrolysis on the surface directly, after the same washing procedures, these slides were subjected to MS-TOF assay. […] The endoglucanase 44A can't accept compound 8 or 9 as a substrate. […] From the above results, the cellotetraose substrate 10 was the best carbohydrate to create array on the PTFE-like ACG surface for the experiments conducted. By using this array, the activity and specificity of unknown cellulase may be examined.
Cellulase was prepared (5 U/mL in 25 mM pH 5.05 NaOAc buffer solution). Substrate was also dissolved in NaOAc buffer solution (25 mM, pH 5.05) to give 0.5 mM substrate solution. Add 50 μL cellulase solution to 50 μL substrate solution onto the glass slide which was loaded in FAST® Frame multi-slide plate to have a 2.5 U/mL cellulase solution with 0.25 mM substrate. The well of the plate was sealed and the whole assembly was incubated in 37° C. for 18 hours. Put the slide in dry box to remove the water, and then use high vacuum to remove trace water. 100 uL water was used to rinse each well of the FAST® Frame multi-slide plate to solve and remove the salt of the buffer solution. Remove any residual water on the plate by high vacuum and then analyzed the slide by MALDI-TOF Ultra-Flex II.
(§2) The genomic DNA of Sulfolobus solfataricus (ATCC 35092) and Clostridium thermocellum (ATCC 27405) were obtained from the ATCC biological resource center. The Sso7d (NCBI accession number: AAK42090) gene fragment was amplified directly from the Sulfolobus solfataricus genome by polymerase chain reaction (PCR) with forward 5′ […] 3′ (SEQ ID NO: 1) and reverse 5′ […] 3′ (SEQ ID NO: 2) primers. […]

[2] = tested on: exoglucanase L3; assay: Enzymatic hydrolysis in solution with purified exoglucanase L3, MS-TOF assay; type: biochemical, Clostridium thermocellum; details: reaction in solution
Method: To verify, the exoglucanases (L3) and endoglucanase (44A) were prepared according methods well known in the literature with minor modifications. First, enzymatic hydrolysis reactions were conducted in solution with the purified enzymes using substrates 8, 9 and 10. At the completion of the reaction, the solution mixtures were transferred to the PTFE-like ACG slide, and prepared by using the same washing procedures before being subjected to MS-TOF assay.
as §1
Cellulase was prepared (5 U/mL in 25 mM pH 5.05 NaOAc buffer solution). Substrate was also dissolved in NaOAc buffer solution (25 mM, pH 5.05) to give 0.5 mM substrate solution. Add 100 uL cellulase solution to 100 uL substrate solution in eppendorf to have a 2.5 U/mL cellulase solution with 0.25 mM substrate. This solution was incubated in 37° C. for 18 hours. Add 100 μL incubated solution onto the slide loaded in FAST® Frame. Put the slide in dry box to remove the water, and then use high vacuum to remove trace water. 100 μL water was used to rinse each well of the FAST® Frame multi-slide plate to solve and remove the salt of the buffer solution. Remove any residual water on the plate by high vacuum and then analyzed the slide by MALDI-TOF Ultra-Flex II.
as §2, with “primers. The PCR product encoding Sso7d was digested with NdeI and BamHI and subsequently cloned into expression vector pET-28a (Novagen) to generate pET-28-Sso7d.” for “primers.”

| Cleavage of the substrate by endoglucanase 44A (in words) [1] | Cleavage of the substrate by exoglucanase L3 (in words) [2] | Structure (SMILES) |
| --- | --- | --- |
| can't accept | slowly | O=C(NCCCCCO[C@@H]1O[C@H](CO)[C@@H](O[C@@H]2O[C@H](CO)[C@@H](O)[C@H](O)[C@H]2O)[C@H](O)[C@H]1O)OCCCC(F)(F)C(F)(F)C(F)(F)C(F)(F)C(F)(F)C(F)(F)C(F)(F)C(F)(F)F [Compound 8, [(4,4,5,5,6,6,7,7,8,8,9,9,10,10,11,11,12,12,12-nonadecafluorododecoxycarbonyl-amino)pentyl] ß-D-cellobioside] |
| can't accept | quickly | O=C(NCCCCCO[C@@H]1O[C@H](CO)[C@@H](O[C@@H]2O[C@H](CO)[C@@H](O[C@@H]3O[C@H](CO)[C@@H](O)[C@H](O)[C@H]3O)[C@H](O)[C@H]2O)[C@H](O)[C@H]1O)OCCCC(F)(F)C(F)(F)C(F)(F)C(F)(F)C(F)(F)C(F)(F)C(F)(F)C(F)(F)C(F)(F)F [Compound 9, [(4,4,5,5,6,6,7,7,8,8,9,9,10,10,11,11,12,12,12-nonadecafluorododecoxycarbonyl-amino)pentyl] ß-D-glucopyranosyl-(1→4)-ß-D-glucopyranosyl-(1→4)- -ß-D-glucopyranoside] |
